In one data set the target is T1, human GPR119 (Homo sapiens, UniProt Q8TDV5).
T1 construct: expressed in transfected cells
T1 sequence (Q8TDV5 1-335): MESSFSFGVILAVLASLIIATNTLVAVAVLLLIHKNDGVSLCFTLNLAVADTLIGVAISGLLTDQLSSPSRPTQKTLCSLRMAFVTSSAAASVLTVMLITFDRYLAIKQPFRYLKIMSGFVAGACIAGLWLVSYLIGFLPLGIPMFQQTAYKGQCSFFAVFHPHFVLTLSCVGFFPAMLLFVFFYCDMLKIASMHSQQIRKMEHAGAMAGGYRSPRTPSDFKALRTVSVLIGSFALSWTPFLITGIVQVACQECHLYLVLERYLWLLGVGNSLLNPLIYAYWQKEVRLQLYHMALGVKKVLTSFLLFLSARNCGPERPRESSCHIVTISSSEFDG
Briefly: Intracellular cAMP increase in human GPR119 introduced cells (HitHunter cAMP XS+ Assay). It counts as cell-based. Particulars: Table 17; method similar to Example 86; hGPR119 stable cells, intracellular cAMP. The source says:
The GPR119 agonist effect was studied by measuring the effect of an analyte on increase of intracellular amount of cAMP in human GPR119 introduced cells. The testing method is described below.
(1) Construction of the Stable Cell Line Expressing Human G Protein-Coupled-Receptor 119 (hGPR119) Human GPR119 gene (NM 178471) is purchased from American Type Culture Collection (ATCC No. 10807349). Hind III site-added forward side primer ([…]: sequence No. 1) and Apa I site-added reverse side primer ([…]: sequence No. 2) are designed. The target gene is amplyfied by a polymerase chain reaction (PCR) method using KOD-Plus-Ver. 2 (TOYOBO #KOD-211). PCR is conducted by repeating three steps consisting of the step of 98° C.-10 seconds, the step of 55° C.-30 seconds, and the step of 68° C.-1 minute and 10 seconds in 35 cycles. The amplified PCR product is inserted into pcDNA5/FRT/TO (Invitrogen #V6520-20) plasmid. Cells, which can constantly express the target gene with tetracycline, are constructed using Flp-In T-REx-systen (invitorogen).
(2) Measurement of Intracellular Cyclic Adenosine Monophosphate (cAMP)
The hGPR119 introduced cells prepared in (1) are plated on a 96-well plate using Dulbecco's Modified Eagle Medium containing heat-inactived 10% fetal bovine serum. After incubation of 24 hours, tetracyclin (invitrogen #Q10019) is added to the culture medium to induce hGPR119 gene expression. After further incubation of 24 hours, the cells are stimulated with 0.5 mM 3-ISOBUTYL-1-METHYLXANTHINE (Sigma #17018) phosphate buffer containing the analyte at 37° C. for 30 minutes. The amount of the intracellular cAMP is measured by using FLUOstar Optima (BMG LABTECH) according to the protocol of HitHunter™ cAMP XS+Assay (GE Healthcare #90007503) to give the agonist activity of the analyte to the GPR119 receptor.
(1) Construction of the Stable Cell Line Expressing Human G-Protein Coupled Receptor 119 (hGPR119) hGPR119 gene (NM 178471) was purchased from American Type Culture Collection (ATCC No. 10807349). The forward primer that was added a HindIII site ([…] (sequence number 1)), and the reverse primer that was added an ApaI site ([…] (sequence number 2)) were designed, the target gene was amplified by polymerase chain reaction (PCR) using a KOD-Plus-Ver.2 (TOYOBO #KOD-211). PCR was repeated 3 steps (98° C. for 10 sec, 55° C. for 30 sec, 68° C. for 1 min 15 sec) by 35 cycles. Amplified PCR product was inserted in pcDNA5/FRT/TO (Invitrogen #V6520-20), and the stable cell line that expresses target gene when induced with tetracycline was created using the Flp-In T-Rex system (Invitrogen).
(2) Measuring Method of Intracellular Cyclic Adenosine Monophosphate (cAMP) hGPR119 stable cells made by above-mentioned (1) were plated on 96 well plates in Dulbecco's Modified Eagle Medium containing 10% heat-inactivated FBS. After 24 hours, the hGPR119 expression was induced by adding medium containing tetracycline (Invitrogen #Q10019) and incubating for another 24 hours. Following incubation, cells were stimulated by 0.5 mM 3-ISOBUTYL-1-METHYLXANTHINE (Sigma #17018) phosphate buffered saline containing test compound for 30 minutes at 37° C. Agonist activity of test compound to the GPR119 receptor was estimated by measuring the intracellular cAMP concentration using a Fluostar optima plate reader (BMG LABTECH) according to the manufacturer's protocol of the HitHunter™ cAMP XS+Assay (GE Healthcare #90007503).
The examination was performed by the method similar to Example 86 (Pharmacological experiment 1)-(1), -(2).

Molecule `CCC(C)(C)OC(=O)N1CCC(c2ccc(COc3ccc(S(C)(=O)=O)cc3)nc2)CC1` [Example 41, 1,1-Dimethylpropyl 4-[2-(4-methanesulfonylphenoxymethyl)pyridin-5-yl]piperidine-1-carboxylate] had a melting point of 114 to 115 °C. The same molecule showed an EC50 at human GPR119 of 0.114 µM.

`CC(C)(C)CC(=O)N1CCC(c2ccc(COc3ccc(S(C)(=O)=O)cc3)nc2)CC1` [Example 46, 1-[4-[2-(4-Methanesulfonylphenoxymethyl)pyridin-5-yl]piperidin-1-yl]-3,3-dimethylbutan-1-one] showed a melting point of 140 to 142 °C.

`COc1cc(S(C)(=O)=O)ccc1OCc1ccc(C2CCN(C(=O)OC(C)(C)C)CC2)cn1` [Example 26, tert-Butyl 4-[2-(4-methanesulfonyl-2-methoxyphenoxymethyl)pyridin-5-yl]piperidine-1-carboxylate] showed a melting point of 135 to 138 °C.

`Cc1cc(C2CCN(C(=O)OC(C)(C)C)CC2)cnc1COc1ccc(S(C)(=O)=O)cc1Cl` [Example 80, tert-Butyl 4-[2-(2-chloro-4-methanesulfonylphenoxymethyl)-3-methylpyridin-5-yl]piperidine-1-carboxylate]: the melting point was 143 to 145 °C. For the same molecule, the EC50 on human GPR119 came out at 0.0659 µM.

For `COc1cc(C2CCN(C(=O)OC(C)(C)C)CC2)cnc1COc1ccc(S(C)(=O)=O)cc1` [Example 67, tert-Butyl 4-[2-(4-methanesulfonylphenoxymethyl)-3-methoxypyridin-5-yl]piperidine-1-carboxylate], the melting point was 153 to 154 °C.

`CC(C)c1nc(N2CCC(c3ccc(COc4ccc(S(C)(=O)=O)cc4)nc3)CC2)no1` [Example 8, 5-[1-(5-Isopropyl-1,2,4-oxadiazol-3-yl)piperidin-4-yl]-2-(4-methanesulfonylphenoxymethyl)pyridine]: the melting point was 143 to 145 °C. At human GPR119, this molecule gave an EC50 of 0.137 µM.

`CCCCCc1cnc(N2CCC(c3ccc(COc4ccc(-n5cnnn5)cc4)nc3)CC2)nc1` [Example 56, 5-Pentyl-2-[4-[2-[4-(tetrazol-1-yl)phenoxymethyl]pyridin-5-yl]piperidin-1-yl]pyrimidine] yielded a melting point of 174 to 176 °C.

The molecule `CCc1cnc(N2CCC(c3ccc(COc4ccc(C#N)c(F)c4)nc3)CC2)nc1` [Example 52, 2-[4-[2-(4-Cyano-3-fluorophenoxymethyl)pyridin-5-yl]piperidin-1-yl]-5-ethylpyrimidine] showed a melting point of 129 to 131 °C.

On to `CCCCCc1cnc(N2CCC(c3ccc(COc4ccc(C#N)c(F)c4)nc3)CC2)nc1` [Example 54, 2-[4-[2-(4-Cyano-3-fluorophenoxymethyl)pyridin-5-yl]piperidin-1-yl]-5-pentylpyrimidine], for which the melting point was in the range of 92 to 94 °C.

As to `CC(C)(C)OC(=O)N1CCC(c2ccc(COc3ccc(-n4cncn4)cc3)nc2)CC1` [Example 16, tert-Butyl 4-[2-[4-(1,2,4-triazol-1-yl)phenoxymethyl]pyridin-5-yl]piperidine-1-carboxylate], the melting point was in the range of 147 to 150 °C. The midpoint of the response on human GPR119, the EC50, lay at 0.129 µM.

`CCCc1cnc(N2CCC(c3ccc(COc4ccc(S(C)(=O)=O)cc4)nc3)CC2)nc1` [Example 49, 2-[4-[2-(4-Methanesulfonylphenoxymethyl)pyridin-5-yl]piperidin-1-yl]-5-propylpyrimidine] returned a melting point of 164 to 166 °C.

On to `CC(C)(C)OC(=O)N1CCC(c2ccc(COc3ccc(NS(C)(=O)=O)cc3)nc2)CC1` [Example 35, tert-Butyl 4-[2-(4-methanesulfonylaminophenoxymethyl)pyridin-5-yl]piperidine-1-carboxylate], for which the melting point is 171 to 173 °C.

As for `CC(C)(C)OC(=O)N1CCC(c2ccc(COc3ccc([N+](=O)[O-])cc3)nc2)CC1` [Example 33, tert-Butyl 4-[2-(4-nitrophenoxymethyl)pyridin-5-yl]-piperidine-1-carboxylate], the melting point is 149 to 150 °C.

For `CCCCCc1cnc(N2CCC(c3ccc(COc4ccc(S(C)(=O)=O)cc4)nc3)CC2)nc1` [Example 50, 2-[4-[2-(4-Methanesulfonylphenoxymethyl)pyridin-5-yl]piperidin-1-yl]-5-pentylpyrimidine], the melting point was in the range of 154 to 157 °C.

`CCOC(=O)N1CCC(c2ccc(COc3ccc(S(C)(=O)=O)cc3)nc2)CC1` [Example 43, Ethyl 4-[2-(4-methanesulfonylphenoxymethyl)pyridin-5-yl]piperidine-1-carboxylate] displayed a melting point of 119 to 121 °C.

`CCc1cnc(N2CCC(c3ccc(COc4ccc(S(C)(=O)=O)cc4)nc3)CC2)nc1` [Example 48, 5-Ethyl-2-[4-[2-(4-methanesulfonylphenoxymethyl)pyridin-5-yl]piperidin-1-yl]pyrimidine]: the melting point is 185 to 187 °C. Further, the concentration giving a half-maximal response (EC50) at human GPR119 was 0.137 µM.

With `CC(C)(C)OC(=O)N1CCC(c2ccc(COc3cccc([N+](=O)[O-])c3)nc2)CC1` [Example 30, tert-Butyl 4-[2-(3-nitrophenoxymethyl)pyridin-5-yl]piperidine-1-carboxylate], the melting point is 94 to 96 °C.

On to `CCOC(=O)c1ccc(OCc2ccc(C3CCN(C(=O)OC(C)(C)C)CC3)cn2)cc1F` [Example 9, tert-Butyl 4-[2-(4-ethoxycarbonyl-3-fluorophenoxymethyl)pyridin-5-yl]piperidine-1-carboxylate], for which the melting point fell in the range of 92 to 95 °C.

Turning to `CC(C)(C)OC(=O)N1CC=C(c2cnc(COc3ccc(S(C)(=O)=O)cc3)cc2Cl)CC1` [Example 76, tert-Butyl 4-[4-chloro-2-(4-methanesulfonylphenoxymethyl)pyridin-5-yl]-3,6-dihydro-2H-pyridine-1-carboxylate], the melting point fell in the range of 148 to 150 °C.

On to `CC(C)(C)OC(=O)N1CCC(c2ccc(COc3ccc(-n4cnnn4)cc3)nc2)CC1` [Example 17, tert-Butyl 4-[2-[4-(tetrazol-1-yl)phenoxymethyl]pyridin-5-yl]piperidine-1-carboxylate], for which, on human GPR119, a half-maximal effect (EC50) was put at 0.034 µM.

The molecule `CC(C)COC(=O)N1CCC(c2ccc(COc3ccc(S(C)(=O)=O)cc3)nc2)CC1` [Example 44, Isobutyl 4-[2-(4-methanesulfonylphenoxymethyl)pyridin-5-yl]piperidine-1-carboxylate] showed a melting point of 114 to 117 °C.

At human GPR119, `CC(C)(C)OC(=O)N1CCC(c2cnc(COc3ccc(S(C)(=O)=O)cc3)c(Cl)c2)CC1` [Example 71, tert-Butyl 4-[3-chloro-2-(4-methanesulfonylphenoxymethyl)pyridin-5-yl]piperidine-1-carboxylate] yielded an EC50 of 0.0293 µM.

The molecule `CC(C)(C)OC(=O)N1CCC(c2cnc(COc3ccc(S(C)(=O)=O)cc3)c(C(F)(F)F)c2)CC1` [Example 73, tert-Butyl 4-[2-(4-methanesulfonylphenoxymethyl)-3-trifluoromethylpyridin-5-yl]piperidine-1-carboxylate] displayed an EC50 on human GPR119 of 0.048 µM.

In general, EC50 refers to the concentration giving half of the maximal effect. A lower EC50 goes with higher potency in that assay. The melting point is the temperature of the solid-liquid transition.

Source of the values: patent US20140018537A1, “GPR119 AGONIST” (NIPPON CHEMIPHAR CO., LTD., priority 2008, published 2014).
